Several values for one entry are separate records, joined by “and”; a condition that tells them apart may be missing. Equal entries are not always repeated. Where two headings read alike, the source gives them in different places.
Assays:
[1] = system: γ-globin reporter cell line; experiment: Cytotoxicity counter screen run simultaneously with the HTS; assay type: cell-based, human; details: simultaneous counter screen of the HTS
γ-globin gene promoter = experiment: High throughput screen: LCR-HS2 γ-globin gene promoter EGFP reporter cell assay; assay type: cell-based, human; details: pilot screen plate, fold increase relative to NC (negative control)
Source text: FIG. 1B is a schematic illustration showing an illustration of the method of the high throughput screening assay (HTS) with the cell construct comprising a locus control region (LCR) linked to the y-globin gene promoter and enhanced GFP (EGFP). A compound which activates γ-globin promoter will induce gene expression of EGFP which can be detected by a suitable detector.
A human cell-based assay which was previously used in low throughput assays, utilizing a 1.4-kilobase (kb) KpnI-BglII fragment of the HS2 of the locus control region (LCR) linked to the γ-globin gene promoter and the enhanced green fluorescent protein (EGFP) reporter gene, was adapted for high throughput screening and employed as the primary screen (FIG. 1A). Cytotoxic activity was assayed in a simultaneous counter screen. […] Several hits were immediately eliminated from further development as potential hemoglobinopathy therapeutics because of cytotoxicity (e.g., Idarubicin) or undesirable off-target effects, but nonetheless validated the HTS itself and were validated in secondary confirmatory assays as highly-potent HbF-inducers. […]

γ-globin [2] = details: in humans, about 3-fold less than in baboons; cited from earlier work
γ-globin [3] = experiment: Fetal globin (γ-globin mRNA, HbF) induction in phlebotomized anemic baboons; assay type: in vivo, baboons (Papio hamadryas anubis); details: for increase of fetal hemoglobin (HbF) protein levels above levels produced by erythroid stress alone: Desloratidine 0.6 mg/kg orally
Method: (§1) Studies to evaluate pharmacokinetic properties and γ-globin induction were performed in juvenile baboons (Papio hamadryas anubis). Briefly, animals were chronically phlebotomized on a daily basis to achieve stable anemia, maintaining a total hemoglobin level of 7.0 to 7.5 g/dl. Candidate compounds were administered intravenously or orally once daily in single doses for pharmacokinetic studies, or once daily in single doses, 4-5 days per week for 4-5 weeks, for pharmacodynamic studies. […] Levels of γ-globin mRNA expression and globin chain synthesis were assessed in baboons before and during treatment with test compounds. A washout period between administrations of different compounds in the same baboon was provided.
(§2) Chronically catheterized baboons were phlebotomized daily to create chronic anemia with total hemoglobin levels (Hb) between 7.0 to 7.5 g/dl which simulates the expanded erythropoiesis and anemia in sickle cell disease and beta thalassemia. Blood counts were drawn and total Hb (hemoglobin) and reticulocytes were analyzed on a hemavet analyzer. Fetal globin mRNA was analyzed by RT-PCR and proportions for f-cells were analyzed by flow cytometry. […] Desloratidine (0.6 mg/kg) was administered for 4 days following a washout period. Blood counts were obtained at least 3 days/week.
Baboons HL-25 and HD50 were phlebotomized daily to create anemia with erythroid expansion. When stably anemic, Desloratidine (0.6 mg/kg) was administered orally, fetal hemoglobin (HbF) protein levels were assayed.

[4] = system: red blood cell production; experiment: Total hemoglobin and hematocrit in phlebotomized anemic baboons; assay type: in vivo, baboons (Papio hamadryas anubis); details: FIG. 12B; MS-275 3 mg/m^2 for 4 days and 2 weeks vs ST20 2 and 4 days; desloratadine 0.6 mg/kg for two days
Method: as §1, §2
Baboon 1509 (weight 10.9 kg) was phlebotomized to induce anemia and marrow expansion, similar to the hemoglobin disorders.

CB BFU-E cells = experiment: CB BFU-E cell proliferation (cells/colony); details: FIG. 8
Method: Fetal globin-inducing activity in human erythroid progenitors was assessed. Human erythroid progenitors were cultured from peripheral blood samples, exposed to the test compounds at varying concentrations and for varying durations and analyzed for globin chain mRNA ratios. Erythroid progenitors were cultured from cord blood CD34+ cells. Briefly, CD34+ cells in the human cord blood were separated using a Ficoll-paque density gradient. CD34+ cells were cultured in H4230 medium containing 2 mM L-glutamine, 1% Methylcellulose in Iscove's Medium, 30% Fetal Bovine Serum, 1% Bovine Serum Albumin and 10^-4 M β-mercaptoethanol. Methylcellulose H4230 medium was supplemented with EPO (0.5 U/ml) and IL-3 (20 ng/ml) to support BFU-e growth. Cells were cultured in […] mini-dishes and incubated in a humidified atmosphere containing 5% CO2, at 37° C. Different concentrations of the test compounds were added at the time the cultures were established. Each compound was tested in three different cultures. BFU-e colonies grown in mini-dishes were counted on day 14 and harvested for mRNA analysis.

red blood cells = experiment: Adult human subject with alpha thalassemia trait given desloratidine; assay type: in vivo; details: 5 mg/day once per day, within 4 weeks
Method: Desloratidine was administered to an adult human subject with alpha thalassemia trait at a standard allergy treatment dose of 5 mg/day total, once per day. […] This is an unexpected and rapid rise in red blood cell levels in a mildly anemic subject. Accordingly, the inventors have discovered that desloratidine can be used to increase red blood cells in a subject at a dose of […] in order to increase the red blood levels in a subject in need of treatment. In some embodiments, the subject who is administered desloratidine is selected to have a low red blood count, or is anaemic or has a cytopenia as disclosed herein.

γ-globin [5] = experiment: Fetal globin (γ-globin mRNA, HbF) induction in phlebotomized anemic baboons; assay type: in vivo, baboons (Papio hamadryas anubis)
γ-globin mRNA [6] = experiment: γ-globin mRNA in cultured primary human erythroid progenitors (BFU-e), real-time PCR; assay type: cell-based
Method: Erythroid progenitors were cultured from cord blood CD34+ cells. […] Each compound was tested in three different cultures. […] On day 14, RNA was extracted from cultured erythroid cells, and relative quantification PCR was performed. Briefly, cDNA was generated from equal amounts of total RNA extracted using The PerfectPure RNA Purification Kit (5 Prime Inc Gaithersburg, Md.). Real-time PCR was performed using an ABI 7500 Real-Time PCR system (Applied Biosystems, Foster City, Calif.). Levels of globin mRNA were calculated by the ΔΔCt method. […] GAPDH levels were used for standardization. Western blotting Nuclear extract of K562 cells and 14-day-old BFU-e were analyzed by electrophoresis using 5-24% gradient SDS-polyacrylamide mini-gels (BIORAD Laboratories. Hercules Calif.). Proteins in the gels were transferred to Immobilon-P membranes. Blots were then incubated with BCL11A polyclonal (Novus Biologicals, Littleton Co) or mouse monoclonal (Santa Cruz Biotechnology, Santa Cruz Calif.) antibodies, after washing blots were incubated with anti-rabbit IgG-horseradish peroxidase secondary antibody (ECL, Little Chalfont Buckinghamshire UK). BCL11A bands were detected on the X-ray film using Western Lightning Reagents (Perking Elmer Inc, Waltham, Mass.).

γ-globin mRNA [7] = experiment: γ-globin mRNA gene expression in K562 cells; assay type: cell-based; details: FIGS. 4A and 4B, K562 cells; Resveratrol 30 μM, desloratadine 50 μM, NSC 50 μM, Benserazine 5 μM
γ-globin mRNA [8] = experiment: γ-globin mRNA in cultured primary human erythroid progenitors (BFU-e), real-time PCR; assay type: cell-based; details: for fetal globin mRNA, Mean: vs untreated control cultures from the same subject
[9] = Desloratadine 3 uM, Cord Blood progenitors
[10] = Desloratadine 3 uM, Hemoglobin disorder progenitors

With `CC(=O)[C@]1(O)Cc2c(O)c3c(c(O)c2[C@@H](O[C@H]2C[C@H](N)[C@H](O)[C@H](C)O2)C1)C(=O)c1ccccc1C3=O` [Idarubicin, idarubicin] the “cytotoxicity (reason for elimination from further development)” value [1] was “cytotoxicity” and the “fold induction of the γ-globin promoter” value (γ-globin gene promoter) was 8 fold.

In the case of `CCC(C)(C)C(=O)[O-].[Na+]` [ST20, sodium 2,2-dimethylbutyrate], the “dose required to increase HbF expression” value (γ-globin [2]) is given as 20 to 50 mg/kg, the “Increase in γ-globin mRNA above baseline” value (γ-globin [3]; Baboon HD50, ST20 oral 150 mg/kg) is given as 310% and the “time of treatment after which fetal globin (HbF) mRNA increased” value (γ-globin [3]; ST-20, same baboon as desloratidine) is given as 2 weeks. For the same compound, the “dose required to increase HbF expression” value (γ-globin [3]; in baboons) was 50 to 150 mg/kg.

With `Clc1ccc2c(c1)CCc1cccnc1C2=C1CCNCC1` [Desloratadine, 8-Chloro-6,11-dihydro-11-(4-piperidinylidene)-5H-benzo[5,6]cyclohepta[1,2-b]pyridine] the “blood total hemoglobin (Hb) levels compared with positive control ST20 (150 mg/kg)” value [4] was “significantly more effective”, the “number of blood cells per colony” value (CB BFU-E cells) was “increase the number of blood cells per colony” and the Hemoglobin after treatment (red blood cells; increased from 10) was 11.5 g/gl. The hematocrit after treatment (red blood cells; increased from 30%) was 35%, the “Increase in γ-globin mRNA above baseline” value (γ-globin [5]; Baboon HD50, Desloratadine oral 0.55 mg/kg) was 350% and the “Increase in γ-globin mRNA above baseline” value (γ-globin [5]; Baboon HD50, Desloratadine oral 0.55 mg/kg, listed as Desloratidine) was 350%. For the same compound, the “Increase in γ-globin mRNA above baseline” value (γ-globin [5]; Baboon HL25, Desloratadine oral 0.55 mg/kg) was 386%, the “Increase in γ-globin mRNA above baseline” value (γ-globin [5]; Baboon HL25, Desloratadine oral 0.55 mg/kg, listed as Desloratidine) was 386% and the “% induction of γ-globin mRNA gene expression” value (γ-globin mRNA [6]; FIG. 4C, HFU-E (burst-forming units-erythroid) cells, Resveratrol 30 μM, desloratadine 50 μM, NSC 50 μM, Benserazine 5 μM) was “most significant % increase”. For the same compound, the “effect in increasing % of γ-globin mRNA expression” value (γ-globin mRNA [6]; FIG. 6, BFU-e cells, Desloratadine 3 μM, Benserazide 3 μM, NSC5397 0.6 μM) was “greatest effect”, the “% induction of γ-globin mRNA gene expression” value (γ-globin mRNA [7]) was “most significant % increase” and the “increase of fetal hemoglobin (HbF) protein levels above levels produced by erythroid stress alone” value (γ-globin [3]; Baboon HD50) was 170%. The “increase of fetal hemoglobin (HbF) protein levels above levels produced by erythroid stress alone” value (γ-globin [3]; Baboon HL25) was 193%, the “fetal globin mRNA” value (γ-globin [3]; Benserazide 1 or 3 mg/kg in baboon 1509, MS-275 and desloratidine) was “induced” and the “γ-globin mRNA expression in blood compared with positive control ST20 (150 mg/kg)” value (γ-globin [3]; FIG. 12A, MS-275 3 mg/m^2 for 4 days and 2 weeks, desloratadine 0.6 mg/kg for two days vs ST20 after 2 or 4 days) was “more effective”. For the same compound, the “time of treatment to detected fetal globin induction and increased HbF” value (γ-globin [3]; desloratidine, same baboon as ST-20) was at most 4 days, the “responses (cultures with induced fetal globin mRNA)” value (“responses” for short) (γ-globin mRNA [8]; [9]) was 4/4 responses and the “fetal globin mRNA, Mean” value (γ-globin mRNA [8]; [9]) was 323 % of control. The “responses” value (γ-globin mRNA [8]; [10]) was 3/3 responses, the “fetal globin mRNA, single subjects” value (γ-globin mRNA [8]; Desloratadine 3 uM, Hemoglobin disorder progenitors (subjects)) was 121 % of control and 123 % of control and 274.2 % of control and the “fetal globin mRNA, Mean” value (γ-globin mRNA [8]; [10]) was 175 % of control. The “responses” value (γ-globin mRNA [8]; Desloratadine 3 uM, Normal progenitors) was 1 response, the “fetal globin mRNA, Mean” value (γ-globin mRNA [8]; Desloratadine 3 uM, Normal progenitors (ABM), 1 response) was 1098 % of control and the “γ-globin mRNA induction” value (γ-globin mRNA [8]; cultured primary human erythroid progenitors, concentrations pharmacologically achievable in humans) was “up to 6 fold”.
